Patent publication US4533541A, “Tin-117m-labeled stannic (Sn^4+) chelates” (The United States of America as represented by the United …, priority 1983, dated 1985)
Like-named read-outs stand apart in the source and are kept apart here.

Conditions: mouse, in vivo; for Blood, % Dose per Gram / Bone, % Dose per Gram / Kidneys, % Dose per Gram / Liver, % Dose per Gram / % Dose remaining in whole body: iv
Procedure: Tissue distribution studies were done in normal BNL mice. All animals were injected with the appropriate radiopharmaceutical intravenously. A number of time periods up to 7 days after injection were used to collect the data.
Comparative studies were conducted using Sn^2+ chloride (pH 2 and 7), Sn^4+ chloride (pH 2), and Sn(2+ and 4+)-labeled chelates (MDP, DTPA, EHDP, and PYP).
Tissue distribution in mice of Sn(2+ and 4+) chloride (pH 2 and 7), and of the stannous and stannic chelates of MDP, DTPA, PYP, and EHDP is shown in Table 1.

Ratio, bone to Blood (30 min): 29
Ratio, bone to Kidney (30 min): 8.1
Ratio, bone to Liver (30 min): 8.4
Ratio, bone to Muscle (30 min): 93
Ratio, bone to Blood (180 min): 85
Ratio, bone to Kidney (180 min): 11
Ratio, bone to Liver (180 min): 13
Ratio, bone to Muscle (180 min): 270
Ratio, bone to Blood (1440 min): 205
Ratio, bone to Kidney (1440 min): 18
Ratio, bone to Liver (1440 min): 14
Ratio, bone to Muscle (1440 min): 375
Blood, % Dose per Gram (0.5 h): 0.41 % Dose per Gram
Bone, % Dose per Gram (0.5 h): 11.80 % Dose per Gram
Kidneys, % Dose per Gram (0.5 h): 1.46 % Dose per Gram
Liver, % Dose per Gram (0.5 h): 1.41 % Dose per Gram
% Dose remaining in whole body (30 min): 33.5 % Dose
% Dose remaining in whole body (180 min): 30.2 % Dose
Blood, % Dose per Gram (3 h): 0.14 % Dose per Gram
Bone, % Dose per Gram (3 h): 12.30 % Dose per Gram
Kidneys, % Dose per Gram (3 h): 1.11 % Dose per Gram
Liver, % Dose per Gram (3 h): 0.97 % Dose per Gram
% Dose remaining in whole body (1440 min): 22.5 % Dose
Blood, % Dose per Gram (24 h): 0.05 % Dose per Gram
Bone, % Dose per Gram (24 h): 10.30 % Dose per Gram
Kidneys, % Dose per Gram (24 h): 0.57 % Dose per Gram
Liver, % Dose per Gram (24 h): 0.73 % Dose per Gram
SMILES: O.O.O=P([O-])([O-])CP(=O)([O-])[O-].[99Tc+4] [^99m Tc-MDP]
